Assay results taken from patent USRE38425E1, “Semicarbazones having CNS activity and pharmaceutical preparations containing same” (University of Saskatchewan Technologies, Inc., priority 1995, dated 2004).

What was measured:
rats [1] = assay: MES screen after oral administration to rats; conditions: oral administration to rats; for MES screen ED50: time t (h) per compound as in the table
rats [2] = assay: neurotoxicity screen after oral administration to rats; conditions: oral administration to rats; time t (h) per compound as in the table
mice [3] = conditions: for acPTZ screen ED50: intraperitoneal injection in mice, time t (h) per compound as in the table
mice [4] = conditions: for neurotoxicity screen TD50: intraperitoneal injection in mice, time t (h) per compound as in the table
mice [5] = assay: MES screen after intraperitoneal injection in mice; format: in vivo; conditions: intraperitoneal injection in mice; time t (h) per compound as in the table

SMILES: NC(=O)NN=Cc1ccc(OC(=O)c2ccc(Cl)cc2)cc1 [15c]
- MES screen: number of rats out of 4 which were protected (rats [1]; dose 12.5 mg/kg, 0.25 h): 1
- MES screen: number of rats out of 4 which were protected (rats [1]; dose 12.5 mg/kg, 1 h): 1
- MES screen: number of rats out of 4 which were protected (rats [1]; dose 12.5 mg/kg, 4 h): 2

SMILES: NC(=O)NN=Cc1ccc(Oc2ccc(Oc3ccccc3)cc2)cc1 [Compound 4i]
- MES screen 2 h: number of rats out of 4 which were protected (rats [1]; dose 50 mg/kg, 2 h): 1
- MES screen 4 h: number of rats out of 4 which were protected (rats [1]; dose 50 mg/kg, 4 h): 1

SMILES: Cc1cccc(Oc2ccc(C=NNC(N)=O)cc2)c1 [Compound 5o]
- MES screen 0.5 h: number of rats out of 4 which were protected (rats [1]; dose 12.5 mg/kg, 0.5 h): 4
- MES screen 1 h: number of rats out of 4 which were protected (rats [1]; dose 12.5 mg/kg, 1 h): 4
- MES screen 2 h: number of rats out of 4 which were protected (rats [1]; dose 12.5 mg/kg, 2 h): 3
- MES screen 4 h: number of rats out of 4 which were protected (rats [1]; dose 12.5 mg/kg, 4 h): 2
- MES screen ED50 (rats [1]): 3.07 mg/kg
- neurotoxicity screen TD50 (rats [2]): >500 mg/kg
- side effect in the scPTZ screen at the end of the 4 hours (mice [3]; intraperitoneal injection into mice, 300 mg/kg): continuous seizure activity followed by death

SMILES: CCC(=NNC(N)=O)c1ccc(Oc2ccc(Cl)cc2)cc1 [Compound 13g]
- neurotoxicity screen TD50 (mice [4]): <100 mg/kg
- MES screen: number of rats out of 4 which were protected (rats [1]; dose 30 mg/kg, 0.5 h): 1
- MES screen: number of rats out of 4 which were protected (rats [1]; dose 30 mg/kg, 1 h): 4
- MES screen: number of rats out of 4 which were protected (rats [1]; dose 30 mg/kg, 2 h): 4
- MES screen: number of rats out of 4 which were protected (rats [1]; dose 30 mg/kg, 4 h): 4
- MES screen ED50 (rats [1]): 2.89 mg/kg
- neurotoxicity screen TD50 (rats [2]): >500 mg/kg
- MES screen ED50 (mice [5]): 11.09 mg/kg

SMILES: CCCc1ccc(Oc2ccc(C=NNC(N)=O)cc2)cc1 [Compound 5q]
- MES screen 0.5 h: number of rats out of 4 which were protected (rats [1]; dose 12.5 mg/kg, 0.5 h): 1
- MES screen 1 h: number of rats out of 4 which were protected (rats [1]; dose 12.5 mg/kg, 1 h): 2
- MES screen 2 h: number of rats out of 4 which were protected (rats [1]; dose 12.5 mg/kg, 2 h): 4
- MES screen 4 h: number of rats out of 4 which were protected (rats [1]; dose 12.5 mg/kg, 4 h): 2
- MES screen ED50 (rats [1]): 2.63 mg/kg
- neurotoxicity screen TD50 (rats [2]): >500 mg/kg

SMILES: NC(=O)NN=Cc1ccc(Oc2ccc(-c3ccccc3)cc2)cc1 [Compound 4g]
- MES screen 2 h: number of rats out of 4 which were protected (rats [1]; dose 12.5 mg/kg, 2 h): 3
- MES screen 4 h: number of rats out of 4 which were protected (rats [1]; dose 12.5 mg/kg, 4 h): 1

SMILES: CC(C)(C)CC(C)(C)c1ccc(Oc2ccc(C=NNC(N)=O)cc2)cc1 [Compound 5t]
- neurotoxicity screen TD50 (mice [4]): 124.53 mg/kg
- acPTZ screen ED50 (mice [3]): >200 mg/kg
- MES screen ED50 (mice [5]): 11.27 mg/kg

SMILES: CC(=NNC(N)=O)c1ccc(Oc2ccccc2)cc1 [Compound 13a]
- neurotoxicity screen TD50 (mice [4]): 73.48 mg/kg
- MES screen: number of rats out of 4 which were protected (rats [1]; dose 30 mg/kg, 0.25 h): 4
- MES screen: number of rats out of 4 which were protected (rats [1]; dose 30 mg/kg, 0.5 h): 4
- MES screen: number of rats out of 4 which were protected (rats [1]; dose 30 mg/kg, 1 h): 4
- MES screen: number of rats out of 4 which were protected (rats [1]; dose 30 mg/kg, 2 h): 4
- MES screen: number of rats out of 4 which were protected (rats [1]; dose 30 mg/kg, 4 h): 4
- MES screen ED50 (rats [1]): 9.73 mg/kg
- acPTZ screen ED50 (mice [3]): 43.31 mg/kg
- MES screen ED50 (mice [5]): 9.08 mg/kg

SMILES: NC(=O)NN=Cc1ccc(Oc2ccccc2)cc1 [Compound 4a]
- MES screen 0.5 h: number of rats out of 4 which were protected (rats [1]; dose 50 mg/kg, 0.5 h): 3
- MES screen 1 h: number of rats out of 4 which were protected (rats [1]; dose 50 mg/kg, 1 h): 4
- MES screen 2 h: number of rats out of 4 which were protected (rats [1]; dose 50 mg/kg, 2 h): 4
- MES screen 4 h: number of rats out of 4 which were protected (rats [1]; dose 50 mg/kg, 4 h): 4

SMILES: NC(=O)NN=Cc1ccc(Oc2ccc(Br)cc2)cc1 [Compound 4d]
- MES screen 0.25 h: number of rats out of 4 which were protected (rats [1]; dose 50 mg/kg, 0.25 h): 1
- MES screen 0.5 h: number of rats out of 4 which were protected (rats [1]; dose 50 mg/kg, 0.5 h): 4
- MES screen 1 h: number of rats out of 4 which were protected (rats [1]; dose 50 mg/kg, 1 h): 4
- MES screen 2 h: number of rats out of 4 which were protected (rats [1]; dose 50 mg/kg, 2 h): 4
- MES screen 4 h: number of rats out of 4 which were protected (rats [1]; dose 50 mg/kg, 4 h): 4

SMILES: CCCCOc1ccc(Oc2ccc(C=NNC(N)=O)cc2)cc1 [Compound 5u]
- MES screen 4 h: number of rats out of 4 which were protected (rats [1]; dose 12.5 mg/kg, 4 h): 2
- MES screen ED50 (rats [1]): 45.81 mg/kg

SMILES: CCCCCCCOc1ccc(Oc2ccc(C=NNC(N)=O)cc2)cc1 [Compound 5v]
- toxicity screen 4 h: minimum dose whereby bioactivity was demonstrated in half or more of the mice (mice [4]; mouse, in vivo): −
